Laboratory results: patent US9512139B2, “Conformationally constrained, fully synthetic macrocyclic compounds” (POLYPHOR AG, priority 2009, dated 2016)
Where two headings read alike, the source gives them in different places.

Key:
in vitro [1] = type: in vitro ADME, human
in vitro [2] = type: in vitro ADME, mouse
Method: Example compounds were dissolved in DMSO/H2O 90:10 to a final concentration of 10 mM for plasma stability determination and metabolic stability determination.
Human plasma (3-5 donors, Blutspendedienst SRK, Basel) and CD-1 mouse plasma (mixed gender pool >50 animals, Innovative Research, CA, USA) are both sodium citrate stabilized. The assay is performed in triplicates at 10 μM compound concentration and 37° C. Samples are taken at 0, 15, 60, and 240 minutes and stopped by precipitation with 2 volumes of acetonitrile. The supernatant is collected, evaporated and reconstituted in a 5% acetonitrile solution to be analyzed by HPLC/MS/MS. The resulting peak area counts are expressed in percent of the 0 value and used to determine the endpoint stability in % and the half life in minutes. In order to monitor assay integrity the degradation of propantheline is assayed with every experimental set.

[3] = Metabolic stability assay, human microsomes; type: in vitro ADME; conditions: for half-life at 10 µM: both sexes
[4] = Metabolic stability assay, CD-1 mouse microsomes; type: in vitro ADME; conditions: for half-life at 10 µM: both sexes
[5] = Metabolic stability assay, rat microsomes (values in parentheses); type: in vitro ADME; conditions: value in parentheses
[6] = amide bond
[7] = both, CD-1, mouse, plasma, 10 µM
[8] = both, CD-1, mouse, plasma, 4 h, 10 µM
[9] = both, human, microsomes, 1 h, 10 µM
[10] = both, CD-1, mouse, microsomes, 10 µM
[11] = both, CD-1, mouse, microsomes, 1 h, 10 µM
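Throughout, for Plasma Stability 240 min mouse [% remain.]: sodium citrate stabilized mouse plasma, parent compound quantified by HPLC/MS/MS relative to its peak area at time zero, run in triplicate.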
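Throughout, for Plasma Stability T½ [min] mouse: sodium citrate stabilized mouse plasma, parent compound quantified by HPLC/MS/MS relative to its peak area at time zero, run in triplicate.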

SMILES | Plasma Stability T½ [min] hum (in vitro [1]; human, plasma, 10 µM) [min] | Plasma Stability 240 min hum [% remain.] (in vitro [1]; human, plasma, 4 h, 10 µM) | Plasma Stability T½ [min] mouse (in vitro [2]; [7]) [min] | Plasma Stability 240 min mouse [% remain.] (in vitro [2]; [8]) | Metabolic Stability T½ [min] hum ([3]; both, human, microsomes, 10 µM) [min] | Metabolic Stability 60 min hum [% remain.] [3, 9] [% remain.] | Metabolic Stability T½ [min] mouse [4, 10] [min] | Metabolic Stability 60 min mouse [% remain.] [4, 11] [% remain.] | Metabolic Stability 60 min (rat) [% remain.] [5] [% remain.] | Metabolic Stability T½ [min] (rat) [5] | half-life at 10 µM ([3]; human, microsomes) [h] | further results
CN1CCC[C@H](NC(=O)Cc2ccccc2)C(=O)N[C@H]2CN[C@H](COc3ccc(F)cc3C1=O)C2 [Ex. 406, N-[(1S,15S,18R)-7-fluoro-11-methyl-10,16-dioxo-3-oxa-11,17,20-triazatricyclo[16.2.1.0^4,9]henicosa-4,6,8-trien-15-yl]-2-phenylacetamide] | > 240 | 75 | > 240 | 89 | > 60 | 77 | > 60 | 94 | 96 | 60 (60) min | – | –
CN1C[C@H](NC(=O)OCc2ccccc2)C(=O)N(C)CC(=O)N2C[C@@H](NC(=O)OC(C)(C)C)C[C@H]2COc2cncc(c2)C1=O [Ex. 272, benzyl N-[(4S,6S,13S)-6-[(tert-butoxycarbonyl)amino]-11,15-dimethyl-9,12,16-trioxo-2-oxa-8,11,15,19-tetraazatricyclo[15.3.1.0^4,8]henicosa-1(21),17,19-trien-13-yl]carbamate] | > 240 | 95 | > 240 | 92 | > 60 | 65 | > 60 | 81 | – | – | – | ring closure, yield of all isomers ([6]; from CNCC(=O)N1C[C@@H](NC(=O)OC(C)(C)C)C[C@H]1COc1cncc(C(=O)N(C)C[C@H](NC(=O)OCc2ccccc2)C(=O)O)c1, T3P, i-Pr2NEt, CH2Cl2, 9.75 mM): 38%
CN1CCC[C@H](N)C(=O)N2C[C@@H](OCc3ccc(-c4ccccc4)cc3)C[C@H]2COc2cccc(c2)C1=O [Ex. 570, (4S,65,10S)-10-amino-6-([1,1′-biphenyl]-4-ylmethoxy)-14-methyl-2-oxa-8,14-diazatricyclo[14.3.1.0^4,8]icosa-1(20),16,18-triene-9,15-dione] | – | – | – | – | – | – | – | – | 76 | 60 (60) min | – | Plasma Stability 240 min hum [% remain.] (in vitro [1]; human plasma, 240 min): 92 % remain.; Plasma Stability T½ [min] hum (in vitro [1]; human, plasma): > 240 min; Plasma Stability 240 min mouse [% remain.] (in vitro [2]; mouse plasma, 240 min): 100 % remain.; Plasma Stability T½ [min] mouse (in vitro [2]; mouse, plasma): > 240 min; Metabolic Stability 60 min hum [% remain.] ([3]; human microsomes, 60 min): 20 % remain.; Metabolic Stability T½ [min] hum ([3]; human, microsomes): 13 min; Metabolic Stability 60 min mouse [% remain.] ([4]; mouse microsomes, 60 min): 69 % remain.; Metabolic Stability T½ [min] mouse ([4]; mouse, microsomes): > 60 min
CN1CCC[C@H](NCC(C)(C)C)C(=O)N2C[C@@H](Oc3ccccc3)C[C@H]2COc2cccc(c2)C1=O [Ex. 563, (4S,6S,10S)-14-methyl-10-(neopentylamino)-6-phenoxy-2-oxa-8,14-diazatricyclo[14.3.1.0^4,8]icosa-1(20),16,18-triene-9,15-dione] | > 240 | 88 | > 240 | 81 | – | 1 | – | 4 | 32 | – | 0.133 | half-life at 10 µM ([4]; CD-1, mouse, microsomes): 0.2 h; half-life at 10 µM ([5]; read-out: Metabolic Stability T½ [min] (rat)): 31 min
CO[C@H]1C[C@H]2COc3cccc(c3)C(=O)N(C)CCC[C@H](NC(=O)CC(C)(C)C)C(=O)N2C1 [Ex. 572, N-[(4S,6S,10S)-6-methoxy-14-methyl-9,15-dioxo-2-oxa-8,14-diazatricyclo[14.3.1.0^4,8]icosa-1(20),16,18-trien-10-yl]-3,3-dimethylbutanamide] | > 240 | 85 | > 240 | 100 | – | 49 | > 60 | 54 | 92 | 60 (60) min | 0.9 | –
CN1CCC[C@H](NC(=O)Cc2ccccc2)C(=O)N2C[C@@H](O)C[C@H]2COc2cccc(c2)C1=O [Ex. 574, N-[(4S,6S,10S)-6-hydroxy-14-methyl-9,15-dioxo-2-oxa-8,14-diazatricyclo[14.3.1.0^4,8]icosa-1(20),16,18-trien-10-yl]-2-phenylacetamide] | > 240 | 91 | > 240 | 95 | > 60 | 94 | > 60 | 93 | 92 | 60 (60) min | – | –
CN1CCC[C@H](NC(=O)OCc2ccccc2)C(=O)N[C@@H]2C[C@@H](COc3ccc(F)cc3C1=O)N(C(=O)OC(C)(C)C)C2 [Ex. 403, tert-butyl (1S,15S,18R)-15-{[(benzyloxy)carbonyl]amino}-7-fluoro-11-methyl-10,16-dioxo-3-oxa-11,17,20-triazatricyclo[16.2.1.0^4,9]henicosa-4,6,8-triene-20-carboxylate] | > 240 | 100 | > 240 | 65 | – | 37 | – | 55 | – | – | 0.6 | ring closure, yield of all isomers ([6]; from CN(CCC[C@H](NC(=O)OCc1ccccc1)C(=O)O)C(=O)c1cc(F)ccc1OC[C@@H]1C[C@@H](N)CN1C(=O)OC(C)(C)C, FDPP, DMF, 1.0 mM): 73%; half-life at 10 µM ([4]; CD-1, mouse, microsomes): 0.95 h
